Several values for one entry are separate records, joined by “and”; a condition that tells them apart may be missing. Identical values can stand only once. Entries after “also recorded” stand apart in the source; their conditions may differ.
Experiments:
melanocytes = assay: Light and electron microscopy of follicular melanocytes; format: in vivo, mice; conditions: i.p.
Description: In […] of 4 mice (1 control and 1 for each compound) were treated daily with the control or compound injected i.p. The compounds tested were 4-S-CAP, N-Ac-4-S-CAP and α-Me-4-S-CAP. Samples of skin and regrowing hair follicles were excised under brief general anaesthesia on day 10 (late anagen phase), fixed in Karnovsky's solution (2.5% glutaraldehyde and 2.5% paraformaldehyde in 011M cacodylate buffer), and refixed in 1% osmium tetroxide in cadodylate buffer. Tissues were stained en bloc with 1.5% uranyl acetate in o.1M veronal buffer for 30 min, dehydrated in graded ethanol solutions, embedded in epoxy resin, and sectioned with a Potter-Blum ultramicrotome MT II. Sections 1.0 μm thick were stained with methylene blue for light microscopy, thin sections were stained with led citrate for electron microscopy.

[1] = Urinary excretion after i.p. injection (metabolic assay); format: in vivo, mice; conditions: 5.2 mg/mouse
Description: Fifteen mice randomly divided into three groups of five were injected i.p. with a test agent (300 mg/kg) dissolved in N saline solution. Group 1 were injected with 4-S-CAP, group 2 with N-Ac-4-S-CAP, group 3 were controls. The mice are kept in metabolic cages; their urine is collected 3, 8 and 24 hr after injection, and the 4-S-CAP and N-Ac-4-S-CAP content is measured by HPLC in a system consisting of a Waters 600E liquid chromatography, with a Bondapak C18 column (3.0×300 mm; particle size, 10 μm) and a Waters 460 electrochemical detector. Mobile phase: 0.1M potassium phosphate buffer, pH 2.1, containing 0.1 mM Na2 EDTA methanol, 80:20 (v/v); column temperature, 60° C.; flow rate 1.0 ml/min. Urine samples are hydrolysed with 0.1M HCl before assay, and the phenols are detected at 850 mV against an Ag/AgCl reference electrode.

melanoma = conditions: in words; cited from earlier work
black hair follicles = assay: Depigmentation of new hair (eumelanin/PTCA content); format: in vivo, C57BL/6J black mice
Description: Female progeny were used in this testing when approximately 8 weeks old and weighing 17 grams.
Thirty mice were randomized into 6 groups of 5 (1 control and 1 for each compound). Starting on day 1, daily for 14 days the agent was injected i.p. or was infiltrated s.c. in an area where hair follicles had been plucked; the dose was 300 mg/kg body weight.
In the same 30 mice, hair follicles were harvested on day 22 (early telogen phase) and their eumelanin content analyzed. […] Briefly, a 10-mg hair sample is homogenized in water at a concentration of 10 mg/ml; the 200-μl homogenate is transferred to a screw-capped test tube, mixed with 1M H2 SO4 (800 μL) and oxidized with 3% KMnO4. The product, pyrrole-2,3,5-tricarboxylic acid (PTCA), is analyzed by HPLC with a UVL detector; samples are measured in duplicate. The eumelanin content is expressed as PTCA (ng/mg) against the PCTA content of BALB/c albino mice as control (≤10 ng/mg, the background value with our method, in which 1 ng corresponds roughly to a eumelanin content of 50 ng), and the degree of depigmentation is expressed as a percentage: (PTCA content of control sample minus PTCA content of experimental sample)/(PCTA content of control sample)×100.

[2] = in words; cited from earlier work
in vivo = conditions: mouse, ip
Description: 3:1-85 1972. In accordance with this Protocol, ten to fifteen mice were used in each test group. They were weighed and randomized at day one after s.c. inoculation of B16 melanoma cells. From day five, the phenolic melanin precursors were administered i.p. daily for nine days. The test compounds were dissolved in normal saline, and sterilized by heating to 100° C. for 2 minutes. […] They were administered j.p. with the following doses: 400 mg/Kg - 4-S-CAP; 200 to 300 mg/Kg - 4-S-CAP; and 200 to 1200 mg/Kg - N-Ac-4-S-CAP. A catalytic amount of L-dopa, 25 mg/Kg and antidecarboxylase, carbidopa, 400 mg/Kg, were also administered. Carbidopa was given one hour prior to L-dopa administration. DTIC (NSC 4538) was used as a control drug at a dose of 60 mg/Kg. Acute toxicity of 4-S-CP and 4-S-CAP was evaluated from 100 to 1600 mg/Kg.
The B16 mouse melanoma was maintained by s.c. inoculation of tumour cells into the back of C57BL7J mice (5 to 6 weeks, female). […] Briefly, excised tumours were homogenized in normal saline. The homogenized tumour cells were then passed through a sterile 80 mesh stainless steel screen, washed with normal saline, centrifuged (500 g. for 10 minutes) and resuspended in normal saline. Suspensions of viable melanoma cells at the concentration of 1×10^6 per 0.1 ml were inoculated s.c. into both the right and left inguinal areas of C57BL/6J mice (female, 5 to 6 weeks old, 18 to 20 gm).

[3] = acute toxicity, evaluated 100 to 1600 mg/Kg (Miura et al); cited from earlier work
follicular melanocytes = conditions: in words; cited from earlier work
[4] = tested on: plasma monoamine oxidase (MAO); conditions: in words, prior knowledge; cited from earlier work
B16F10 melanoma colonies = assay: Melanoma-colony formation in the lungs; format: in vivo, mouse
Description: Murine B16F10 melanoma cell line with a strong metastatic property to form tumour colonies in the lungs was obtained from Dr. Longenecker, Department of Immunology, University of Alberta. Such cell line is well recognized and readily available as reported in Miura et al, supra. The cells were grown in T-75 flasks in dulbecco's MEM available from Gipco Lab Inc., Grand Island, N.Y., supplemented with 10% fetal calf serum, also obtained from Gipco, penicillin (100 μ/ml) and streptomycin (100 μg/ml). The cells were incubated at 37° C. in humidified atmosphere of 5% CO2 in air. […] Viable cells were identified by trypan blue dye exclusion and counted. The cell suspension was diluted to the desired concentration. […] On day zero, the mice were inoculated via the lateral tail vein with 5×10^4 cells in 0.2 ml of N saline. The test drugs were dissolved in normal saline, sterilized by membrane filtration, and administered in a dose of 300 mg/Kg (4 -S-CAP) or 900 mg/Kg (N-Ac-4-S-CAP); starting on day five, the control solution or drug was injected i.p. daily for 14 days. On day 26, the mice were killed by cervical dislocation, their lungs were removed, and the number of melanoma colonies was counted under a dissecting microscope. The results were expressed as percentage reduction in the number of colonies: [a-b/a]×100, where a=colonies in control group and b=colonies in experimental group.

B16 melanoma = assay: In vivo growth inhibition of s.c. inoculated B16 melanoma; set-up: species or system mouse; conditions: for % Gi (growth inhibition): 200 mg/Kg
Description: Briefly, excised tumours were homogenized in normal saline.
The in vivo antimelanoma effect of the compounds were evaluated by percent growth inhibition of inoculated tumour (% g.i.). The percent g.i. was computed from the mean tumour volume at day 12 or 13 of the experiments; i.e., 100× (1- treated group/control group). Tumour volume was calculated by the following formula:
tumour volume=long axis×(short axis)^2 ×1/2.

[5] = s.c., 300 mg/kg daily for 14 days, hair day 22

## NCCSc1ccc(O)cc1 [4-S-CAP, 4-S-cysteaminylphenol, reference compound]
melanocytes; 10 days
  Electron microscopy of melanocytes/melanosomes: contained immature melanosomes at stages II and III
melanocytes; day 10
  Light microscopy of hair follicles: the hair follicles contained functioning melanocytes and melanin pigments transferred into keratonocytes, although they were much sparser than in the controls
[1]; 3 h after i.p. injection
  Urinary excretion of unchanged compound, amount: 0.399 ± 0.018 mg
[1]; 8 h after i.p. injection
  Urinary excretion of unchanged compound, amount: 0.443 ± 0.023 mg
[1]; 24 h after i.p. injection
  Urinary excretion of unchanged compound, amount: 0.458 ± 0.021 mg
[1]; urine, ip, 300 mg/kg, 3 h after i.p. injection, read-out: Urinary excretion of unchanged compound, % of dose
  dose excreted at 3 h: 7.7%
[1]; urine, ip, 300 mg/kg, 8 h after i.p. injection, read-out: Urinary excretion of unchanged compound, % of dose
  dose excreted at 8 h: 8.5%
[1]; urine, ip, 300 mg/kg, 24 h after i.p. injection, read-out: Urinary excretion of unchanged compound, % of dose
  dose excreted at 24 h: 8.8%
melanoma
  Inhibition of melanoma growth: exhibited inhibition of melanoma growth
  Prolonging lifespan of melanoma-bearing mice: potent agent in prolonging the lifespan of melanoma-bearing mice
Black hair follicles; i.p., 300 mg/kg daily for 14 days, hair day 22
  Depigmentation: 87%
Black hair follicles; in words
  Depigmentation of new growth of black hair follicles: i.p. administration induced more depigmentation than s.c.
Black hair follicles; [5]
  Depigmentation: 47%
  PTCA Content: 458.3 ± 107.6 ng/mg
[2]
  Hypotensive effect: hypotensive
In vivo
  MTD: 200 to 300 mg/kg
[3]
  Lethal dose: 400 mg/kg
Follicular melanocytes
  Effect on albino follicles: no effect on the albino follicles
  Effect on black hair follicles / black hair: demonstrated cytotoxicity in the depigmentation of black hair follicles; also recorded: depigmentation of black hair as manifested by loss of functioning melanocytes
[4]
  Substrate for plasma MAO (converted into aldehyde form): substrate for monoamineoxidase (MAO); also recorded: substrate not only for tyrosinase, but also for plasma monoamineoxidase (MAO)
B16F10 melanoma colonies; 300 mg/kg i.p. daily for 14 days, day 26
  Colonies, % control: 32.4% and 30%
B16F10 melanoma colonies; in words
  Number of B16F10 melanoma colonies: significantly reduced
B16 melanoma; Experiment I
  % Gi (growth inhibition): 54.0%
B16 melanoma; Experiment II
  % Gi (growth inhibition): 25.1%
B16 melanoma; in words
  Growth inhibition of B16 melanoma: greater anti-melanoma effect at 200 mg/Kg than N-Ac-4-S-CAP
